Results on three compounds are retold here after patent US6586216B2 (Purdue Research Foundation, priority 1997, dated 2003).

In test [1] the target is T1, Bacillus subtilis glutamine PRPP amidotransferase, wild type (Bacillus subtilis, UniProt P00497).
T1 construct: Enzymes of the B. subtilis class are synthesized with an NH2 terminal propeptide; made in house; host or cells: E. coli strain TX158 (purF), plasmid pGZ1
Nature of the test: Nucleotide binding by equilibrium dialysis, wild type enzyme. Conditions: for Capacity: at saturation. Here is the method:
(§1) Plasmid pGZ1 was used for production of the wild type enzyme. […] For construction of mutants, the EcoRI-HindIII purF^+ DNA was transferred to pUC118 to yield pBsF. […] The resulting plasmids were named pBsF/S283A, pBsF/K305Q, pBsF/R307Q, and pBsF/S347A.
For enzyme purification, all buffers were sparged with nitrogen gas prior to use in order to minimize oxidation of the enzyme's Fe-S cluster. All steps were carried out at 4° C. Cells were resuspended in 4 mL/gram of buffer A [50 mM Tris-HCl (pH 8.0), 10 mM MgCl2, 0.1 mM EDTA, 5 mM DTT, and 2 mM AMP] containing 1 mM PMSF, and were disrupted by two passes through a French Press. The cell extract was obtained by centrifugation for 1 h at 27,000 g. Protamine sulfate (5 mg per gram of cells) was added to the extract to precipitate DNA. […] After centrifugation, enzyme in the brown pellet was recovered by extraction twice with 30% saturated ammonium sulfate. A small colorless pellet that remained was discarded, and the dark brown enzyme solution in buffer A containing residual ammonium sulfate was stored as beads in liquid nitrogen. […] For assays of activity, the enzyme was diluted 1:1000 in […] Tris-HCl (pH 8.0) containing 1 mg/mL bovine serum albumin. For measurements of ligand binding by equilibrium dialysis and for crystallization experiments, the enzyme was dialyzed anaerobically against buffer B [50 mM Tris-HCl (pH 8.0), 0.1 mM EDTA, and 5 mM DTT] prior to being used.
Nucleotide binding was determined by equilibrium dialysis using chambers of 150 μL that were separated by a 12000-14000 molecular weight dialysis membrane. […] In some experiments, the chambers with radioactive nucleotide also contained a fixed concentration of a second non-radioactive nucleotide. The other chamber contained 50 mM Tris-HCl (pH 7.5) and 50-200 μM enzyme, calculated as the subunit concentration, in a volume of 100 μL. Dialysis was carried out for 20 h at room temperature (˜22° C.) in a rotating apparatus. Samples of 80 μL were retrieved from each chamber and were counted for radioactivity. All experiments were performed in an anaerobic glovebox. […] Equilibrium binding data were fit to the Hill equation (Y=C [free ligand]^n/[…]+[free ligand]^n, where Y is the fractional saturation, C is the binding capacity, Kd is the dissociation constant, and n is the Hill coefficient) by nonlinear regression using Ultrafit software (Biosoft, Cambridge, UK).
On the technique in general: Equilibrium dialysis compares concentrations on both sides of a semipermeable membrane.

The target in test [2] is T1, Bacillus subtilis glutamine PRPP amidotransferase, wild type. Nature of the test: Inhibition of enzyme activity (glutamate formation) by nucleotides, wild type. The class given is biochemical. Conditions: for Hill coefficient from inhibition data: determined from inhibition data, PRPP present. Here is the method:
as §1
(§2) Enzyme activity was assayed by measuring the initial rate of formation of the product glutamate. […] Incubation was at 37° C. for 6 min. […] Reactions were quenched in a boiling water bath for 2 min, and glutamate was determined by the glutamate dehydrogenase method.
(§3) Inhibition by nucleotides was determined by the standard assay to which varied concentrations of nucleotide were added. Synergistic inhibition was determined by varying the concentration of one nucleotide in the presence of a fixed concentration of a second nucleotide. Relative activity (see FIG. 1) refers to the enzyme activity at a given concentration of the varied nucleotide relative to that in the absence of the varied nucleotide. I0.5 values were calculated from plots of relative activity versus varied nucleotide concentration.

The target of test [3] is T2, glutamine PRPP amidotransferase S347A mutant enzyme (Bacillus subtilis, UniProt P00497, S358A).
T2 construct: Enzymes of the B. subtilis class are synthesized with an NH2 terminal propeptide and an Fe—S center; made in house; host or cells: E. coli strain TX158 (purF) with plasmid pBsF/S347A
The class given is biochemical. As to the method:
as §2, §3
(§4) These modified forms of amidotransferase were analyzed to determine the impact of the mutations on end-product inhibition and enzymatic activity. Inhibition by nucleotides was determined as described in Example 1.

Test [4] has as its target T3, glutamine PRPP amidotransferase S283A mutant enzyme (Bacillus subtilis, UniProt P00497, S294A).
T3 construct: Enzymes of the B. subtilis class are synthesized with an NH2 terminal propeptide and an Fe—S center; made in house; host or cells: E. coli strain TX158 (purF) with plasmid pBsF/S283A
Format: biochemical. Conditions: for higher concentration required for 50% inhibition compared to wild type: ADP-GMP mixture. Here is the method:
as §2, §3, §4

The target of test [5] is T4, glutamine PRPP amidotransferase K305Q mutant enzyme (Bacillus subtilis, UniProt P00497, K316Q).
T4 construct: Enzymes of the B. subtilis class are synthesized with an NH2 terminal propeptide and an Fe—S center; made in house; host or cells: E. coli strain TX158 (purF) with plasmid pBsF/K305Q
Format: biochemical. As to the method:
as §2, §3, §4

In test [6] the target is T5, glutamine PRPP amidotransferase R307Q mutant enzyme (Bacillus subtilis, UniProt P00497, R318Q).
T5 construct: Enzymes of the B. subtilis class are synthesized with an NH2 terminal propeptide and an Fe—S center; made in house; host or cells: E. coli strain TX158 (purF) with plasmid pBsF/R307Q
The class given is biochemical. Here is the method:
as §2, §3, §4

[7] abbreviates: no fixed nucleotide, pH 7.5, ~22° C., half-saturation of the two sites, read-out: Kd (apparent).
[8] abbreviates: fixed GMP 1.0 mM, read-out: I0.5.
[9] abbreviates: fixed ADP 0.5 mM, read-out: I0.5.
Setting [10] is: no fixed nucleotide, 2.5 mM PRPP, pH 8.0, 37° C., read-out: I0.5.

Molecules are shown by their SMILES. Values joined by “and” are separate entries in the source; they are usually repeats but may differ in a detail not shown here. Identical values can stand only once. Like-named read-outs stand apart in the source and are kept apart here.

T3 sequence (P00497 12-476 S294A): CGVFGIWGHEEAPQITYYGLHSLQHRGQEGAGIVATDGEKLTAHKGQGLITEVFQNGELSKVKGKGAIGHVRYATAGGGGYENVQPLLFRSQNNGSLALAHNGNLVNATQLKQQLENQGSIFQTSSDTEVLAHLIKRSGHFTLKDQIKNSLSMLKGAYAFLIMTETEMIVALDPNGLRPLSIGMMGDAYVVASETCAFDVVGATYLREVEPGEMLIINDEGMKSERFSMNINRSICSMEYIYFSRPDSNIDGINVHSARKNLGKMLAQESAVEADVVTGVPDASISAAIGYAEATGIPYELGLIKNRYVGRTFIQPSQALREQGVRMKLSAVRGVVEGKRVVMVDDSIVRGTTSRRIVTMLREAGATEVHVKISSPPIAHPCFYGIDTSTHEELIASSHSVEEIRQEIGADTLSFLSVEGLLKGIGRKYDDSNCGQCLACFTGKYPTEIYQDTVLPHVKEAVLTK
T5 sequence (P00497 12-476 R318Q): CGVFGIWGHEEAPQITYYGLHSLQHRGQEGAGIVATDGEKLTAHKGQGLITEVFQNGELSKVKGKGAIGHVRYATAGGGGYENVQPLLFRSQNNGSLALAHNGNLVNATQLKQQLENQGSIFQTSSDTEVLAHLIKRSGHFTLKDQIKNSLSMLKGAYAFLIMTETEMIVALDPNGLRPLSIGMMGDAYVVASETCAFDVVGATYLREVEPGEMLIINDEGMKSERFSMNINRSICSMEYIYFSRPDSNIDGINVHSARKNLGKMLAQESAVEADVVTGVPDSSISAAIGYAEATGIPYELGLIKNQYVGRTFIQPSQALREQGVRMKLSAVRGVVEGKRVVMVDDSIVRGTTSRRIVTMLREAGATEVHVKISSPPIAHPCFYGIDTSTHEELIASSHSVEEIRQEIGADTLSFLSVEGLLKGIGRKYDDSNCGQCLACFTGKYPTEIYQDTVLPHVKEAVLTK
T4 sequence (P00497 12-476 K316Q): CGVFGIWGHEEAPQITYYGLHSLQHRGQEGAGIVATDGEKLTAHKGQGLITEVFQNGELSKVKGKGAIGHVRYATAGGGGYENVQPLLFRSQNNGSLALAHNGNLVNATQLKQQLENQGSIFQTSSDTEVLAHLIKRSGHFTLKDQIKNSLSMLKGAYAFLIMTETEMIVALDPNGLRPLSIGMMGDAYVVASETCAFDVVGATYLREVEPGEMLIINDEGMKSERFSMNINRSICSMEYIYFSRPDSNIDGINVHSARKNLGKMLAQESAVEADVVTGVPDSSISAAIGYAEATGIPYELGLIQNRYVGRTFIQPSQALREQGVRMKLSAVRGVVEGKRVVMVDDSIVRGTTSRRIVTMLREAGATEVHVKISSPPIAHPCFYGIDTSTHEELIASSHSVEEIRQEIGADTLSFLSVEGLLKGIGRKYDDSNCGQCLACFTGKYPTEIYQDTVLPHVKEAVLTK
T1 sequence (P00497 12-476): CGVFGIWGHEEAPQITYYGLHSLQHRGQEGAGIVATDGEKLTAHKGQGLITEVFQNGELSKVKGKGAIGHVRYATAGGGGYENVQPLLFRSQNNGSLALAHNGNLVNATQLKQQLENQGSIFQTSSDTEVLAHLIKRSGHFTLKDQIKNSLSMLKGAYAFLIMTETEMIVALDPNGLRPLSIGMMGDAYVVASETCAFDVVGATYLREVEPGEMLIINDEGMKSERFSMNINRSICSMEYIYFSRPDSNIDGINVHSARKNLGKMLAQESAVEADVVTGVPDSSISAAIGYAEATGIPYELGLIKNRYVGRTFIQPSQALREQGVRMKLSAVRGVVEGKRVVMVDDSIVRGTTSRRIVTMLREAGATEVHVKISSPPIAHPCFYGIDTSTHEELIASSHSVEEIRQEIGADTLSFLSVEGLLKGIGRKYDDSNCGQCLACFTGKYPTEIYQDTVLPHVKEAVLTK
T2 sequence (P00497 12-476 S358A): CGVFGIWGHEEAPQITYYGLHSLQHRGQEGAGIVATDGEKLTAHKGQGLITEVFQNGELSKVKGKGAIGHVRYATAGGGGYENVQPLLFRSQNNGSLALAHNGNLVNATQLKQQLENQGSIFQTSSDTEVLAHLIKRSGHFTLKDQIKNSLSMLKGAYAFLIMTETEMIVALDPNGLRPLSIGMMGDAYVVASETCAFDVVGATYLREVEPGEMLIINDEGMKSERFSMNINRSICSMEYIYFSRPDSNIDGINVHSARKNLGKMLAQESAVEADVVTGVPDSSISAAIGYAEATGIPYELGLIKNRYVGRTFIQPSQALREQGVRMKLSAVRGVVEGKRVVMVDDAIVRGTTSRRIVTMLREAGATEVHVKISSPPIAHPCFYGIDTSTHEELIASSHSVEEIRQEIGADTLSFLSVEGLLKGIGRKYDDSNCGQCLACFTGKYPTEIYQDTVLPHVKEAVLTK

The Hill coefficient is the slope factor of the fitted curve. On to `Nc1ncnc2c1ncn2[C@@H]1O[C@H](COP(=O)(O)OP(=O)(O)O)[C@@H](O)[C@H]1O` [ADP], for which the “decrease of Kd in the presence of GMP” value in test [1] (GMP present) worked out at 20 fold. Further, the Kd in test [1] (Kd, GMP fixed at either 0.25 or 1.0 mM) is around 10 µM; in test [1] (fixed GMP 0.25 mM, read-out: Kd), 10.4 ± 2.7 µM; in test [1] (fixed GMP 1.0 mM, read-out: Kd), 11 µM; in test [1] (setting [7]) it was 214 µM and ~214 µM. In addition, the Capacity in test [1] (fixed GMP 0.25 mM) is 0.82 ± 0.11 Equivalents bound per subunit; in test [1] (fixed GMP 1.0 mM), 0.94 ± 0.14 Equivalents bound per subunit; in test [1] (no fixed nucleotide), 1.83 Equivalents bound per subunit and 1.83 ± 0.26 Equivalents bound per subunit. Besides, in test [1] (no fixed nucleotide), the Hill coefficient is on record as 1.8. Further, the IC50 in test [2] (I0.5, fixed GMP 0.25 mM) is 240 µM; in test [2] (I0.5, no fixed nucleotide, 2.5 mM PRPP, pH 8.0, 37° C.), 4700 µM; in test [2] (fixed GMP 0.50 mM, read-out: I0.5) it was 160 µM; in test [2] (setting [8]) it was 80 µM; in test [2] (fixed GMP 2.0 mM, read-out: I0.5), 40 µM. Further, in test [2], the “Hill coefficient from inhibition data” value was 3.8. In addition, the “syn. (decreased I0.5 due to a second nucleotide)” value in test [2] (fixed AMP 0.1 mM) was 1.9 fold; in test [2] (fixed GMP 0.25 mM), 20 fold and 20.0 fold; in test [2] (fixed GMP 0.50 mM), 29.0 fold; in test [2] (fixed GMP 1.0 mM) it was 59 fold and 59.0 fold; in test [2] (fixed GMP 2.0 mM), 118.0 fold; in test [2] (fixed GMP 4.0 mM) it was 188.0 fold. Besides, the “concentration for 50% inhibition relative to AMP” value in test [2] (no fixed nucleotide) came out at 5 fold. For the same compound, the syn. is 37.0 in test [3] (fixed GMP 1.4 mM (footnote c)); 5.0 in test [4] (fixed GMP 0.50 mM); 2.6 in test [5] (fixed GMP 0.50 mM); 97.0 in test [5] (fixed GMP 5.0 mM); 12.0 in test [6] (fixed GMP 0.50 mM); 156.0 in test [6] (fixed GMP 5.0 mM). Further, the “higher concentration required for 50% inhibition compared to wild type” value in test [4] was 30 fold.
For `Nc1nc2c(ncn2[C@@H]2O[C@H](COP(=O)(O)O)[C@@H](O)[C@H]2O)c(=O)[nH]1` [GMP], the “increased binding affinity (C site) relative to AMP” value in test [1] (ADP bound to the A site) turned out to be 3 fold. Further, the “increased binding affinity (C site) relative to IMP” value in test [1] (ADP bound to the A site) worked out at 3 fold. Also, the Kd is 25 µM in test [1] (Kd, fixed ADP 0.5 mM); above 500 µM in test [1] (Kd, no fixed nucleotide, not detected); above 500 µM in test [1] (no fixed nucleotide, binding too weak to detect, read-out: Kd). Moreover, the “Kd for the free enzyme, estimated” value in test [1] (assuming a synergism of 20-fold) is “approximately 500 μM”. For the same compound, the Capacity in test [1] (fixed ADP 0.5 mM) was 0.98 ± 0.10 Equivalents bound per subunit. The “syn. (decreased I0.5 due to a second nucleotide)” value in test [2] (fixed ADP 0.5 mM) is 63 fold and 63.0 fold; in test [2] (fixed AMP 0.1 mM) it was 0.95 fold. Besides, the IC50 is 150 µM in test [2] (setting [9]); 9900 µM in test [2] (fixed AMP 0.1 mM, read-out: I0.5); 9400 µM in test [2] (setting [10]). Also, in test [2] (no fixed nucleotide), the “concentration for 50% inhibition relative to ADP” value came to 2 fold. The “concentration for 50% inhibition relative to AMP” value in test [2] (no fixed nucleotide) is listed as 10 fold. The syn. was found to be 33.0 in test [3] (fixed ADP 0.8 mM (footnote c)); 3.3 in test [4] (fixed ADP 0.5 mM); 3.9 in test [4] (fixed ADP 2.5 mM); 8.3 in test [5] (fixed ADP 0.5 mM); 38.0 in test [5] (fixed ADP 2.5 mM); 15.0 in test [6] (fixed ADP 0.5 mM). Moreover, the syn. in test [6] (fixed ADP 2.5 mM) came to 66.0. In addition, the “I0.5 increase compared to wild type” value in test [3] (inhibition at the C site, ADP fixed) came out at 3 fold. Also, the “higher concentration required for 50% inhibition compared to wild type” value in test [4] came to 13 fold. Besides, the “I0.5 increase relative to wild type” value in test [4] (single nucleotide) is on record as “similar”.
As to `Nc1ncnc2c1ncn2[C@@H]1O[C@H](COP(=O)(O)O)[C@@H](O)[C@H]1O` [AMP], the Capacity in test [1] (fixed ADP 0.25 mM) was 0.94 ± 0.16 Equivalents bound per subunit; in test [1] (fixed ADP 0.5 mM) it was “approximately 0.4 Equivalents bound per subunit”; in test [1] (fixed GMP 1.0 mM) it was 1.05 ± 0.21 Equivalents bound per subunit; in test [1] (no fixed nucleotide), 1.57 Equivalents bound per subunit and 1.57 ± 0.27 Equivalents bound per subunit. In addition, the Kd in test [1] (fixed ADP 0.25 mM, read-out: Kd) is 77 µM; in test [1] (fixed GMP 1.0 mM, read-out: Kd) it was 103 µM; in test [1] (setting [7]), 240 µM and 239 µM. In test [1] (fixed GMP or ADP), the “increase of binding affinity by GMP or ADP” value was 2-3 fold. For the same compound, the Hill coefficient in test [1] (no fixed nucleotide) was found to be 3.4. The “Hill coefficient from inhibition data” value in test [2] is on record as 3.3-3.8. The “syn. (decreased I0.5 due to a second nucleotide)” value in test [2] (fixed ADP 0.5 mM) came out at 1.4 fold; in test [2] (fixed GMP 1.0 mM) it was 1.0 fold. Further, the IC50 in test [2] (setting [9]) is 640 µM; in test [2] (setting [8]), 940 µM; in test [2] (setting [10]), 900 µM. Further, the syn. in test [3] (fixed ADP 0.8 mM (footnote c)) was 2.3; in test [3] (fixed GMP 1.4 mM (footnote c)), 0.8.
